How the values were obtained:
Experiment in all cases: Broader kinase panel (PerkinElmer)
Assay type in all cases: biochemical
ZIPK (DAPK3) = target: T1, ZIPK (DAPK3) (Homo sapiens, UniProt O43293); settings: 100 nM; read-out: Average Percent Inhibition
T1 construct: purchased In-house HTRF panel (56 kinases) and PerkinElmer (161-kinase panel)
Excerpt: (§1) […]. […] […].

AMPK = settings: 100 nM
Excerpt: as §1

c-Raf = target: T2, c-Raf (Homo sapiens, UniProt P04049); settings: 100 nM; read-out: Average Percent Inhibition
T2 construct: purchased In-house HTRF panel (56 kinases) and PerkinElmer (161-kinase panel)
Excerpt: as §1

DYRK4 = target: T3, DYRK4 (Homo sapiens, UniProt Q9NR20); settings: 100 nM; read-out: Average Percent Inhibition
T3 construct: purchased In-house HTRF panel (56 kinases) and PerkinElmer (161-kinase panel)
Excerpt: as §1

BMX = target: T4, BMX (Homo sapiens, UniProt P51813); settings: 100 nM; read-out: Average Percent Inhibition
T4 construct: purchased In-house HTRF panel (56 kinases) and PerkinElmer (161-kinase panel)
Excerpt: as §1

MARK1 = target: T5, MARK1 (Homo sapiens, UniProt Q9P0L2); settings: 100 nM; read-out: Average Percent Inhibition
T5 construct: purchased In-house HTRF panel (56 kinases) and PerkinElmer (161-kinase panel)
Excerpt: as §1

NuaK1 = target: T6, NuaK1 (Homo sapiens, UniProt O60285); settings: 100 nM; read-out: Average Percent Inhibition
T6 construct: purchased In-house HTRF panel (56 kinases) and PerkinElmer (161-kinase panel)
Excerpt: as §1

MST3 (STK24) = target: T7, MST3 (STK24) (Homo sapiens, UniProt Q9Y6E0); settings: 100 nM; read-out: Average Percent Inhibition
T7 construct: purchased In-house HTRF panel (56 kinases) and PerkinElmer (161-kinase panel)
Excerpt: as §1

SGK1 = target: T8, SGK1 (Homo sapiens, UniProt O00141); settings: 100 nM; read-out: Average Percent Inhibition
T8 construct: purchased In-house HTRF panel (56 kinases) and PerkinElmer (161-kinase panel)
Excerpt: as §1

GCK = target: T9, GCK (Homo sapiens, UniProt Q12851); settings: 100 nM; read-out: Average Percent Inhibition
T9 construct: purchased In-house HTRF panel (56 kinases) and PerkinElmer (161-kinase panel)
Excerpt: as §1

FLT1 = target: T10, FLT1 (Homo sapiens, UniProt P17948); settings: 100 nM; read-out: Average Percent Inhibition
T10 construct: purchased In-house HTRF panel (56 kinases) and PerkinElmer (161-kinase panel)
Excerpt: as §1

MET = target: T11, MET (Homo sapiens, UniProt P08581); settings: 100 nM; read-out: Average Percent Inhibition
T11 construct: purchased In-house HTRF panel (56 kinases) and PerkinElmer (161-kinase panel)
Excerpt: as §1

Ca MKII_beta = target: T12, Ca MKII_beta (Homo sapiens, UniProt Q13554); settings: 100 nM; read-out: Average Percent Inhibition
T12 construct: purchased In-house HTRF panel (56 kinases) and PerkinElmer (161-kinase panel)
Excerpt: as §1

FMS = target: T13, FMS (Homo sapiens, UniProt P07333); settings: 100 nM; read-out: Average Percent Inhibition
T13 construct: purchased In-house HTRF panel (56 kinases) and PerkinElmer (161-kinase panel)
Excerpt: as §1

PASK = target: T14, PASK (Homo sapiens, UniProt Q96RG2); settings: 100 nM; read-out: Average Percent Inhibition
T14 construct: purchased In-house HTRF panel (56 kinases) and PerkinElmer (161-kinase panel)
Excerpt: as §1

PDGFRA (D842V) = target: T15, PDGFRA (D842V) (Homo sapiens, UniProt P16234, D842V); settings: 100 nM; read-out: Average Percent Inhibition
T15 construct: purchased In-house HTRF panel (56 kinases) and PerkinElmer (161-kinase panel)
Excerpt: as §1

Abl (Q252H) = target: T16, Abl (Q252H) (Homo sapiens, UniProt P00519, Q252H); settings: 100 nM; read-out: Average Percent Inhibition
T16 construct: purchased In-house HTRF panel (56 kinases) and PerkinElmer (161-kinase panel)
Excerpt: as §1

DYRK3 = target: T17, DYRK3 (Homo sapiens, UniProt O43781); settings: 100 nM; read-out: Average Percent Inhibition
T17 construct: purchased In-house HTRF panel (56 kinases) and PerkinElmer (161-kinase panel)
Excerpt: as §1

AKT1 = AKT1 (Homo sapiens, UniProt P31749); settings: 100 nM; read-out: Average Percent Inhibition
Excerpt: as §1

MARK4 = target: T18, MARK4 (Homo sapiens, UniProt Q96L34); settings: 100 nM; read-out: Average Percent Inhibition
T18 construct: purchased In-house HTRF panel (56 kinases) and PerkinElmer (161-kinase panel)
Excerpt: as §1

CAMK4 = target: T19, CAMK4 (Homo sapiens, UniProt Q16566); settings: 100 nM; read-out: Average Percent Inhibition
T19 construct: purchased In-house HTRF panel (56 kinases) and PerkinElmer (161-kinase panel)
Excerpt: as §1

SGK3 = SGK3 (Homo sapiens, UniProt Q96BR1); settings: 100 nM; read-out: Average Percent Inhibition
Excerpt: as §1

MSK2 = target: T20, MSK2 (Homo sapiens, UniProt O75676); settings: 100 nM; read-out: Average Percent Inhibition
T20 construct: purchased In-house HTRF panel (56 kinases) and PerkinElmer (161-kinase panel)
Excerpt: as §1

p38alpha/SAPK2a (T106M) = target: T21, p38alpha/SAPK2a (T106M) (Homo sapiens, UniProt Q16539, T106M); settings: 100 nM; read-out: Average Percent Inhibition
T21 construct: purchased In-house HTRF panel (56 kinases) and PerkinElmer (161-kinase panel)
Excerpt: as §1

CLK2 = target: T22, CLK2 (Homo sapiens, UniProt P49760); settings: 100 nM; read-out: Average Percent Inhibition
T22 construct: purchased In-house HTRF panel (56 kinases) and PerkinElmer (161-kinase panel)
Excerpt: as §1

DAPK1 = target: T23, DAPK1 (Homo sapiens, UniProt P53355); settings: 100 nM; read-out: Average Percent Inhibition
T23 construct: purchased In-house HTRF panel (56 kinases) and PerkinElmer (161-kinase panel)
Excerpt: as §1

Yes = target: T24, Yes (Homo sapiens, UniProt P07947); settings: 100 nM; read-out: Average Percent Inhibition
T24 construct: purchased In-house HTRF panel (56 kinases) and PerkinElmer (161-kinase panel)
Excerpt: as §1

CDK1/Cycline B1 = target: T25, CDK1/Cycline B1 (Homo sapiens, UniProt P06493); settings: 100 nM; read-out: Average Percent Inhibition
T25 construct: purchased In-house HTRF panel (56 kinases) and PerkinElmer (161-kinase panel)
Excerpt: as §1

LCK = LCK (Homo sapiens, UniProt P06239); settings: 100 nM; read-out: Average Percent Inhibition
Excerpt: as §1

DDR2 = target: T26, DDR2 (Homo sapiens, UniProt Q16832); settings: 100 nM; read-out: Average Percent Inhibition
T26 construct: purchased In-house HTRF panel (56 kinases) and PerkinElmer (161-kinase panel)
Excerpt: as §1

CDK5/p25 = target: T27, CDK5/p25 (Homo sapiens, UniProt Q00535); settings: 100 nM; read-out: Average Percent Inhibition
T27 construct: purchased In-house HTRF panel (56 kinases) and PerkinElmer (161-kinase panel)
Excerpt: as §1

p38a = target: T28, p38a (Homo sapiens, UniProt Q16539); settings: 100 nM; read-out: Average Percent Inhibition
T28 construct: purchased In-house HTRF panel (56 kinases) and PerkinElmer (161-kinase panel)
Excerpt: as §1

AKT2 = target: T29, AKT2 (Homo sapiens, UniProt P31751); settings: 100 nM; read-out: Average Percent Inhibition
T29 construct: purchased In-house HTRF panel (56 kinases) and PerkinElmer (161-kinase panel)
Excerpt: as §1

EGFR (ErbB1) T790M L858R = target: T30, EGFR (ErbB1) T790M L858R (Homo sapiens, UniProt P00533, L858R/T790M); settings: 100 nM; read-out: Average Percent Inhibition
T30 construct: purchased In-house HTRF panel (56 kinases) and PerkinElmer (161-kinase panel)
Excerpt: as §1

TEC = target: T31, TEC (Homo sapiens, UniProt P42680); settings: 100 nM; read-out: Average Percent Inhibition
T31 construct: purchased In-house HTRF panel (56 kinases) and PerkinElmer (161-kinase panel)
Excerpt: as §1

DCAMKL1 = target: T32, DCAMKL1 (Homo sapiens, UniProt O15075); settings: 100 nM; read-out: Average Percent Inhibition
T32 construct: purchased In-house HTRF panel (56 kinases) and PerkinElmer (161-kinase panel)
Excerpt: as §1

SGK2 = target: T33, SGK2 (Homo sapiens, UniProt Q9HBY8); settings: 100 nM; read-out: Average Percent Inhibition
T33 construct: purchased In-house HTRF panel (56 kinases) and PerkinElmer (161-kinase panel)
Excerpt: as §1

PKD3 = target: T34, PKD3 (Homo sapiens, UniProt O94806); settings: 100 nM; read-out: Average Percent Inhibition
T34 construct: purchased In-house HTRF panel (56 kinases) and PerkinElmer (161-kinase panel)
Excerpt: as §1

ABL1(G250E) = target: T35, ABL1(G250E) (Homo sapiens, UniProt P00519, G250E); settings: 100 nM; read-out: Average Percent Inhibition
T35 construct: purchased In-house HTRF panel (56 kinases) and PerkinElmer (161-kinase panel)
Excerpt: as §1

PKGa = target: T36, PKGa (Homo sapiens, UniProt Q13976); settings: 100 nM; read-out: Average Percent Inhibition
T36 construct: purchased In-house HTRF panel (56 kinases) and PerkinElmer (161-kinase panel)
Excerpt: as §1

ABL1(E255K) = target: T37, ABL1(E255K) (Homo sapiens, UniProt P00519, E255K); settings: 100 nM; read-out: Average Percent Inhibition
T37 construct: purchased In-house HTRF panel (56 kinases) and PerkinElmer (161-kinase panel)
Excerpt: as §1

INSR = target: T38, INSR (Homo sapiens, UniProt P06213); settings: 100 nM; read-out: Average Percent Inhibition
T38 construct: purchased In-house HTRF panel (56 kinases) and PerkinElmer (161-kinase panel)
Excerpt: as §1

T3 sequence (Q9NR20 whole entry): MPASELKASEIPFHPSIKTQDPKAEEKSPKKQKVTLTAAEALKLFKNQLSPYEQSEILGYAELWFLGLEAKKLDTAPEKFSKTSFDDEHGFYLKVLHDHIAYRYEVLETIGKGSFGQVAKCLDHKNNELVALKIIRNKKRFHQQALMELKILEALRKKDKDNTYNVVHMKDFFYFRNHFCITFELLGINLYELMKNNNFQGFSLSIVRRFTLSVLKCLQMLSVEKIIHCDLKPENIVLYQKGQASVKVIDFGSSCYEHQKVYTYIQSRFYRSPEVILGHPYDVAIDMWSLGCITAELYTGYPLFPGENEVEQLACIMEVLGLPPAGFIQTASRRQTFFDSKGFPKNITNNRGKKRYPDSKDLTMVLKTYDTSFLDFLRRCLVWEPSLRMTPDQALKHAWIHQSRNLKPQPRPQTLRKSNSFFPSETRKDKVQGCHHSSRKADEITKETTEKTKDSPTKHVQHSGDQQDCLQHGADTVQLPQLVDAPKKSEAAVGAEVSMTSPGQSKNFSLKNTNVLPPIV
T17 sequence (O43781 whole entry): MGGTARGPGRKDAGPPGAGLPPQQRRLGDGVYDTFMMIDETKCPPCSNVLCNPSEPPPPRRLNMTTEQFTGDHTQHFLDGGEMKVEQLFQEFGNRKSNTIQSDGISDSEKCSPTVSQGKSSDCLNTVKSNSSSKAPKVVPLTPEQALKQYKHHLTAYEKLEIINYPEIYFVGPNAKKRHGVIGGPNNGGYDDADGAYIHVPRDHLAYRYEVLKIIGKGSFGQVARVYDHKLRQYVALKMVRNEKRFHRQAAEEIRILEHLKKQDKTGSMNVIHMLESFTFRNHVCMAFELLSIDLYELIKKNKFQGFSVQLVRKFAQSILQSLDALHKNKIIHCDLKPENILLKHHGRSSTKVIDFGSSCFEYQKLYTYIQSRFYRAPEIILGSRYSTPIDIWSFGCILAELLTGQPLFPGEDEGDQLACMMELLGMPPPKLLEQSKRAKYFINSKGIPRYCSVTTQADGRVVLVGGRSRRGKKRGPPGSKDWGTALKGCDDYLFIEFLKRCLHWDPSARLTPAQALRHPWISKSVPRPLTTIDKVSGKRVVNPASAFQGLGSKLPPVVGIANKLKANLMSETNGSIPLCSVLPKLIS
T21 sequence (Q16539 whole entry T106M): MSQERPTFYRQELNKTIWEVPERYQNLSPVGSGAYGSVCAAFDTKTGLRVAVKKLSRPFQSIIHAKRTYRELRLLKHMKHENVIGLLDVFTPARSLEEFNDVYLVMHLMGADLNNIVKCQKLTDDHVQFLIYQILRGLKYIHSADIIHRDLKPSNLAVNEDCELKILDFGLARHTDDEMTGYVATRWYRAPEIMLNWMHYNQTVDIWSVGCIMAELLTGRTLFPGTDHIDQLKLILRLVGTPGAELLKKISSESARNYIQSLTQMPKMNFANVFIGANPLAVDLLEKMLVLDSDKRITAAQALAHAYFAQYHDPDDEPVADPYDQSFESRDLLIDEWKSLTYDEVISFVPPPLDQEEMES
T8 sequence (O00141 whole entry, species assumed): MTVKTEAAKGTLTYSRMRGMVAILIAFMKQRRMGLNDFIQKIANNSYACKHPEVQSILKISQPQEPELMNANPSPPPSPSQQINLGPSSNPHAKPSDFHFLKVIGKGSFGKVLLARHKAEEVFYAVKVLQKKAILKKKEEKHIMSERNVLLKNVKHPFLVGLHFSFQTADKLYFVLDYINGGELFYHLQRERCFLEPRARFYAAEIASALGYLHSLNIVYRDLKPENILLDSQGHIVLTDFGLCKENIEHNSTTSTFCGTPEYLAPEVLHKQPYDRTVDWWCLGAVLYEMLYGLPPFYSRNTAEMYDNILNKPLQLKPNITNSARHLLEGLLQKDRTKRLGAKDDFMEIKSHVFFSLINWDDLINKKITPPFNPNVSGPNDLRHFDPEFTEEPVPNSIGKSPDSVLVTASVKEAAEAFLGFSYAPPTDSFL
T30 sequence (P00533 25-1210 T790M/L858R): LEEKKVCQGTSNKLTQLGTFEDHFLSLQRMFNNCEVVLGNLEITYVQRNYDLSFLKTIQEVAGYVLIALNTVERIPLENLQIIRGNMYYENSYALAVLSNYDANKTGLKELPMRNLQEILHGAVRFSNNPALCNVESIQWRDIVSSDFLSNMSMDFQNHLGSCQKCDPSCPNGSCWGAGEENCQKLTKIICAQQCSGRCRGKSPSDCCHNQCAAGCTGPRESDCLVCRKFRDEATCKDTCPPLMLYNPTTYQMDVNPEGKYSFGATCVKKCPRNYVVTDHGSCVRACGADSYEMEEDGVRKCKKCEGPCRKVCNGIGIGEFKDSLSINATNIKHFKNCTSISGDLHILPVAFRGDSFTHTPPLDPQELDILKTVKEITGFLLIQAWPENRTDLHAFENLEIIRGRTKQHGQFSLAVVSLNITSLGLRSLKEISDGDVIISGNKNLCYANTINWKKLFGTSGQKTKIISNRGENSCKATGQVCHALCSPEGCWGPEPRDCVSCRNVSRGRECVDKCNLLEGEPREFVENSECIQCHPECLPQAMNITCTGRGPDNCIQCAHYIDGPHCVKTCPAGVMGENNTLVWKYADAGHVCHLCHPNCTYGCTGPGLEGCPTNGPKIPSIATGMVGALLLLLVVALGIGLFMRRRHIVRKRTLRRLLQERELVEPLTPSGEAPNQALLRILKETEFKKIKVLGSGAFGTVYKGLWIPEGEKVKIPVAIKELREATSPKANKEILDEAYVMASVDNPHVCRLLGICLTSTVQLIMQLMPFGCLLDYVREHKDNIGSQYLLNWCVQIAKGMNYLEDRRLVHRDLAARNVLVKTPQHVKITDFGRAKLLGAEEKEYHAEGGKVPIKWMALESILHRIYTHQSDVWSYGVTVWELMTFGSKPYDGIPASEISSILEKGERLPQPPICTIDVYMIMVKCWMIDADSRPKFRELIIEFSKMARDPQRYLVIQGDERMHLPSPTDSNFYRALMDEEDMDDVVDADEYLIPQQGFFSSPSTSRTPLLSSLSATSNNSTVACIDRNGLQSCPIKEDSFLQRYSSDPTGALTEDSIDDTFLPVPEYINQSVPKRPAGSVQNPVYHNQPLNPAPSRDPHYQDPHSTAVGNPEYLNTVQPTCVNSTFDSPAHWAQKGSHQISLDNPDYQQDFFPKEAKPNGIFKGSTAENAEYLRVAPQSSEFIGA
T13 sequence (P07333 20-972): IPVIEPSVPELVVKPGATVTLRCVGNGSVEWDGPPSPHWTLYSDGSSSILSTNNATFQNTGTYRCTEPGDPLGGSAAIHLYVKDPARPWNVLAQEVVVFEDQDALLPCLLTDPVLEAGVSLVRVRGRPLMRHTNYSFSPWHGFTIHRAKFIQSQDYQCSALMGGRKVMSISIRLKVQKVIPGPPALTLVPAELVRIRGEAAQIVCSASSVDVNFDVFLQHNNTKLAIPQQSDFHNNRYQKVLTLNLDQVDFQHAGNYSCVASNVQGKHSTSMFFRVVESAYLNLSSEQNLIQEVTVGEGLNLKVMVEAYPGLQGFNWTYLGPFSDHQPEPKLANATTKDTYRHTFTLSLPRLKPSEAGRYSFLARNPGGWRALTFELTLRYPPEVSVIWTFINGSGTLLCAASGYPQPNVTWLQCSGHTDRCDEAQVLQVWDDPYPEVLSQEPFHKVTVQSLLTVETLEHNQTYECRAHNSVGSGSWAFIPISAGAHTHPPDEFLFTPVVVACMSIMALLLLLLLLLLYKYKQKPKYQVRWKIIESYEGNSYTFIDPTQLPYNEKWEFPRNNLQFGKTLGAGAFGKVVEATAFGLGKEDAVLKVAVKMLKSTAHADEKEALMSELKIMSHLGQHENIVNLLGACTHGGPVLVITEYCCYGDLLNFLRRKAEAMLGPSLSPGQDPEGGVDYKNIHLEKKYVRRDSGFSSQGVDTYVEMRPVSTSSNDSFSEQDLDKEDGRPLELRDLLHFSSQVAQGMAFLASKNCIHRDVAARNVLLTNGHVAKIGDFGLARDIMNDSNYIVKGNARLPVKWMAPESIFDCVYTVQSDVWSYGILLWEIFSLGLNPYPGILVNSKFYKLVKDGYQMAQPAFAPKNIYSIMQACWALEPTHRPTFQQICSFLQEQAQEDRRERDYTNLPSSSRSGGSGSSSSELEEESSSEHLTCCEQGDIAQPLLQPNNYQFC
T7 sequence (Q9Y6E0 whole entry): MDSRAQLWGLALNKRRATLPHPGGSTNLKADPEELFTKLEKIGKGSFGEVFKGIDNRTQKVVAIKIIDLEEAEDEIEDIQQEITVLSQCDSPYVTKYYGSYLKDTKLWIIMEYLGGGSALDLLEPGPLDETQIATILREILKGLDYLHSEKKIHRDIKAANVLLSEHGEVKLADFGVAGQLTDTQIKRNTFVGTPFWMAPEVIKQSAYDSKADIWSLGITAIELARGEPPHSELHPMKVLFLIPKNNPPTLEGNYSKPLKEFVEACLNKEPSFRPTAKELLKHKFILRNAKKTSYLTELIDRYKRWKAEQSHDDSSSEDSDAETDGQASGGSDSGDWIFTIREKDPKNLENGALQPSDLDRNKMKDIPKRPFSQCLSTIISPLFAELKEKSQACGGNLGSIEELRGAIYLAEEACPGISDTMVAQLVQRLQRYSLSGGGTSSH
T27 sequence (Q00535 whole entry): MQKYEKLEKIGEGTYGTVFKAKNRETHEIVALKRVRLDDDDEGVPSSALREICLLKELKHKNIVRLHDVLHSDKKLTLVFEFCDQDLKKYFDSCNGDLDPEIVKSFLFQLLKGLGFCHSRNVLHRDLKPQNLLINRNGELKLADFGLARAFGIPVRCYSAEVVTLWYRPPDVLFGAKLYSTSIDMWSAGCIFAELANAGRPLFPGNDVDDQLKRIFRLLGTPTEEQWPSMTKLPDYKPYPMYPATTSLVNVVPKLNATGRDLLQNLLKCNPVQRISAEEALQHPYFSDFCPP
T27 sequence (Q15078 99-307 partner limits assumed): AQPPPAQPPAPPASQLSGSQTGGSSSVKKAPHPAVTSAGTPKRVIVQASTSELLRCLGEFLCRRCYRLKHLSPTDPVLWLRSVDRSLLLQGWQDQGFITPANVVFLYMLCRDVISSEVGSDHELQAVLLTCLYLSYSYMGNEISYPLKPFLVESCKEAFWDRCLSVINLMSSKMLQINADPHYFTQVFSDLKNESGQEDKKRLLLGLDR

CCN1C(=O)N(c2c(F)c(OC)cc(OC)c2F)Cc2cnc3[nH]c(CN4CCOCC4)cc3c21 [INCB054828, pemigatinib]
inhibition at 0.1 µM (ZIPK (DAPK3)): 7% | Average Percent Inhibition (AMPK): 4% | inhibition at 0.1 µM (c-Raf): 3% | inhibition at 0.1 µM (DYRK4): -4% | inhibition at 0.1 µM (BMX): 3% | inhibition at 0.1 µM (MARK1): 10% | inhibition at 0.1 µM (NuaK1): -3% | inhibition at 0.1 µM (MST3 (STK24)): 7% | inhibition at 0.1 µM (SGK1): 1% | inhibition at 0.1 µM (GCK): 1% | inhibition at 0.1 µM (FLT1): 13% | inhibition at 0.1 µM (MET): -2% | inhibition at 0.1 µM (Ca MKII_beta): -9% | inhibition at 0.1 µM (FMS): -10% | inhibition at 0.1 µM (PASK): -7% | inhibition at 0.1 µM (PDGFRA (D842V)): 18% | inhibition at 0.1 µM (Abl (Q252H)): 1% | inhibition at 0.1 µM (DYRK3): 0% | inhibition at 0.1 µM (AKT1): 2% | inhibition at 0.1 µM (MARK4): -4% | inhibition at 0.1 µM (CAMK4): -1% | inhibition at 0.1 µM (SGK3): 13% | inhibition at 0.1 µM (MSK2): -7% | inhibition at 0.1 µM (p38alpha/SAPK2a (T106M)): -3% | inhibition at 0.1 µM (CLK2): -3% | inhibition at 0.1 µM (DAPK1): 1% | inhibition at 0.1 µM (Yes): 3% | inhibition at 0.1 µM (CDK1/Cycline B1): 5% | inhibition at 0.1 µM (LCK): -2% | inhibition at 0.1 µM (DDR2): -1% | inhibition at 0.1 µM (CDK5/p25): -4% | inhibition at 0.1 µM (p38a): 1% | inhibition at 0.1 µM (AKT2): 2% | inhibition at 0.1 µM (EGFR (ErbB1) T790M L858R): 5% | inhibition at 0.1 µM (TEC): 19% | inhibition at 0.1 µM (DCAMKL1): -4% | inhibition at 0.1 µM (SGK2): -2% | inhibition at 0.1 µM (PKD3): 0% | inhibition at 0.1 µM (ABL1(G250E)): 1% | inhibition at 0.1 µM (PKGa): 1% | inhibition at 0.1 µM (ABL1(E255K)): 6% | inhibition at 0.1 µM (INSR): 1%

Reference: paper PMC7313537 (PLoS ONE, 2020)
